In general, IC50 refers to the concentration that inhibits the measured activity by half.

In paper PMC12594101, “Biphasic control of the B cell transcriptome by mTORC1 and GSK3” (Cell reports, 2025) one finds IC50 data, which are given here for one compound.

For assay [1], the target named is GSK3B (Homo sapiens, UniProt P49841). Put plainly: in vitro HotSpot kinase assay (Reaction Biology), 10-dose IC50 in triplicate. The assay is classed as biochemical.
Assay [2] has as its target GSK3A (Homo sapiens, UniProt P49840). Described as above. Format: biochemical.

Sequence of GSK3A (P49840 2-483): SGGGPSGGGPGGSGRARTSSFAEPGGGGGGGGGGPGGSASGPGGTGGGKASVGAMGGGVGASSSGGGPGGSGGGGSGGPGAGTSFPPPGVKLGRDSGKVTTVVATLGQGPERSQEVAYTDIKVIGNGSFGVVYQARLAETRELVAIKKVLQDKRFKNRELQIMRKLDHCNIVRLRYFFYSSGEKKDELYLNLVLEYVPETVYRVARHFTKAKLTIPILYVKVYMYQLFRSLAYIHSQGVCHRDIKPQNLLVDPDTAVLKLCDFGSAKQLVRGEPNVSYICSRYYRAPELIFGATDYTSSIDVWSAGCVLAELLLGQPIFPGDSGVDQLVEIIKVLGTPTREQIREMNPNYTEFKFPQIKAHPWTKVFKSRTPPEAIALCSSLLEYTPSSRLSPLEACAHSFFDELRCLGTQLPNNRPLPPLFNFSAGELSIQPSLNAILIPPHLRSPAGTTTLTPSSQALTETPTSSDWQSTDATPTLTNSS
Sequence of GSK3B (P49841 whole entry): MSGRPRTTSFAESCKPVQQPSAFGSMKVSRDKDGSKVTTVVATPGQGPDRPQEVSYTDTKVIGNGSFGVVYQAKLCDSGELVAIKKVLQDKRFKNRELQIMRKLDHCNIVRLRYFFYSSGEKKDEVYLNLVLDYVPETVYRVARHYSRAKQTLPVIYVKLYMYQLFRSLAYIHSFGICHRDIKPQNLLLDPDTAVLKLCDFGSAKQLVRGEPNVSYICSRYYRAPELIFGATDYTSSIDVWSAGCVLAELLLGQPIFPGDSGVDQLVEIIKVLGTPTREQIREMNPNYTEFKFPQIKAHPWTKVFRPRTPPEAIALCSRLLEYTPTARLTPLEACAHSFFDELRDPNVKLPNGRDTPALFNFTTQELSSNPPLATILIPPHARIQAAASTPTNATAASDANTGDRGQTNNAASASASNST

As for `CCn1cc(C(=O)O)c(=O)c2c(N)c(F)c(NC3CCCCC3)cc21` [AS1842856], the half-inhibitory concentration (IC50) in assay [1] and in assay [2] was 2.8 nM each time.
